20 molecules from patent publication US7030145B2, “Pyridinyl derivatives for the treatment of depression” (Bristol-Myers Squibb Company, priority 2003, dated 2006) can be followed below.

Series [1] has as its target T1, cloned human CRF-R1 receptors (Homo sapiens, UniProt P34998).
T1 construct: the coding region was amplifies by PCR from start to stop codons; expressed in transfected cells; membranes
T1 sequence (P34998 24-415): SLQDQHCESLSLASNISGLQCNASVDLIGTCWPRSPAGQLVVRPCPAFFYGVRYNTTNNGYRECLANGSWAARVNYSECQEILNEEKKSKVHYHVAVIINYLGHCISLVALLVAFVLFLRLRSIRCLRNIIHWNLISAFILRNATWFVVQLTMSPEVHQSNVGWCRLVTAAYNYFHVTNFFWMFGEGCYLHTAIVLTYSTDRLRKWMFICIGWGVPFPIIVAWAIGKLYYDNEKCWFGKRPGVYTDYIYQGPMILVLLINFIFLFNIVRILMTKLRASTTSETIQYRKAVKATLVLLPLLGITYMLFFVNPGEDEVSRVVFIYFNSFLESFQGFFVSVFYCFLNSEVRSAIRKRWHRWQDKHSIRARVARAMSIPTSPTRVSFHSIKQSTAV
The experiment in a line: CRF-R1 receptor binding assay (inhibition of 125I-ovine-CRF binding to cell membranes). The following applies: membranes of 293EBNA cells transfected with hCRFR1, class d = reported as percent inhibition at 10 μM, figures not given, read-out: activity (Ki class in the CRF assays). The source says:
The following is a description of the isolation of cell membranes containing cloned human CRF-R1 receptors for use in a standard binding assay as well as a description of the assay itself.
Messenger RNA was isolated from human hippocampus. […]. The mRNA was reverse transcribed using oligo (dt) 12–18 and the coding region was amplifies by PCR from start to stop codons. The resulting PCR fragment was cloned into the EcoRV site of pGEMV, from whence the insert was reclaimed using XhoI+XbaI and cloned into the XhoI+XbaI sites of vector pm3 as (which contains a CMV promoter, the SV′t′ splice and early poly A signals, an Eptein-Barr viral origin of replication, and a hygromycin selectable marker). The resulting expression vector, called phchCRFR was transfected in 293EBNA cells and cells retaining the episome were selected in the presence of […] hygromycin. Cells surviving 4 weeks of selection in hygromycin were pooled, adapted to growth in suspension and used to generate membranes for the binding assay described below. Individual aliquots containing approximately 1×10^8 of the suspended cells were then centrifuged to form a pellet and frozen. For the binding assay a frozen pellet described above containing 293EBNA cells transfected with hCRFR1 receptors is homogenized in 10 mL of ice cold tissue buffer (50 mM HEPES buffer pH 7.0, containing 10 MM MgCl2, 2 mM EGTA, 1 μg/mL apotinin, 1 μg/mL leupeptin and 1 μg/mL pepstatin). The homoginate is centrifuged at 40,000×g for 12 min and the resulting pellet rehomogenized in 10 mL of tissue buffer. After another centrifugation at 40,000×g for 12 min, the pellet is resuspended to a protein concentration of 360 μg/mL to be used in the assay.
Binding assays are performed in 96 well plates; each well having a 300 μL capacity. To each well is added 50 μL of test drug dilutions (final concentration of drugs range from 10^−10–10^−5 M), 100 μL of ^125I-ovine-CRF (^125I-o-CRF) (final concentration 150 pM) and 150 μL of the cell homoginate described above. Plates are then allowed to incubate at room temperature for 2 hours before filtering the incubate over GF/F filters (presoaked with 0.3% polyethyleneimine) using an appropriate cell harvester. Filters are rinsed 2 times with ice cold assay buffer before removing individual filters and assessing them for radioactivity on a gamma counter.
Curves of the inhibition of ^125I-o-CRF binding to cell membranes at various dilutions of test drug are analyzed by the iterative curve fitting program LIGAND [P. J. Munson and D. Rodbard, Anal. Biochem., 107:220 (1980), which provides Ki values for inhibition which are then used to assess biological activity. […]
Messenger RNA was isolated from human hippocampus. The mRNA was isolated from human hippocampus. The mRNA was reverse transcribed using oligo (dt) 12–18 and the coding region was amplifies by PCR from start to stop codons. The resulting PCR fragment was cloned into the EcoRV site of pGEMV, from whence the insert was reclaimed using XhoI+XbaI and cloned into the XhoI+XbaI sites of vector pm3 as (which contains a CMV promoter, the SV′t′ splice and early poly A signals, an Eptein-Barr viral origin of replication, and a hygromycin selectable marker). The resulting expression vector, called phchCRFR was transfected in 293EBNA cells and cells retaining the episome were selected in the presence of […] hygromycin. Cells surviving 4 weeks of selection in hygromycin were pooled, adapted to growth in suspension and used to generate membranes for the binding assay described below. […]
A frozen pellet described above containing 293EBNA cells transfected with hCRFR1 receptors or the rat frontal cortex tissue dissected from frozen rat brains was prepared as the source of membranes expressing CRF1 receptors used in binding assays. […]

By melting point is commonly meant the temperature, or range, at which the solid turns liquid. As a reminder, the Ki is a dissociation constant, usually derived from enzyme kinetics or from competition with a known ligand. Consider `Cc1cc(C)c(Nc2nc(C)ccc2S(=O)(=O)c2ccc(OCc3cc(Cl)nc(Cl)c3)cc2)c(C)c1` [Example 20, {3-[4-(2,6-Dichloropyridin-4-ylmethoxy)-benzenesulfonyl]-6-methylpyridin-2-yl}-(2,4,6-trimethylphenyl)-amine], for which the melting point was 192 to 201 °C. In series [1], the Ki lay in the range of 100 to 500 nM.
The corresponding values for `Cc1cc(C)c(Nc2nc(C)ccc2S(=O)(=O)c2ccc(OCc3csc(C)n3)cc2)c(C)c1` [Example 21, {6-Methyl-3-[4-(2-methylthiazol-4-ylmethoxy)-benzenesulfonyl]-pyridin-2-yl}-(2,4,6-trimethylphenyl)-amine] are 200 to 201 °C and 100 to 500 nM.
The molecule `Cc1cc(C)c(Nc2nc(C)ccc2S(=O)(=O)c2ccc(OCc3ccc(F)cc3)cc2)c(C)c1` [Example 22, {3-[4-(4-Fluorobenzyloxy)-benzenesulfonyl]-6-methylpyridin-2-yl}-(2,4,6-trimethylphenyl)-amine] came in with a melting point of 178 to 180 °C. Moreover, in series [1], the Ki lay within 100 to 500 nM.
In the case of `Cc1cc(C)c(Nc2nc(C)ccc2S(=O)(=O)c2ccc(OCc3ccc(C#N)cc3)cc2)c(C)c1` [Example 23, 4-{4-[6-Methyl-2-(2,4,6-trimethylphenylamino)-pyridine-3-sulfonyl]-phenoxymethyl}-benzonitrile], the melting point is 208 to 210 °C. Further, the Ki in series [1] is 100 to 500 nM.
Regarding `Cc1cc(C)c(Nc2nc(C)ccc2S(=O)(=O)c2ccc(OCc3cccc(C#N)c3)cc2)c(C)c1` [Example 24, 3-{4-[6-Methyl-2-(2,4,6-trimethylphenylamino)-pyridine-3-sulfonyl]-phenoxymethyl}-benzonitrile], the melting point is 155 to 158 °C. Besides, the Ki in series [1] was not above 100 nM.
The molecule `COC(=O)c1cccc(COc2ccc(S(=O)(=O)c3ccc(C)nc3Nc3c(C)cc(C)cc3C)cc2)c1` [Example 25, 3-{4-[6-Methyl-2-(2,4,6-trimethylphenylamino)-pyridine-3-sulfonyl]-phenoxymethyl}-benzoic acid methyl ester] came in with a melting point of 148 to 150 °C. Further, in series [1], the Ki was not above 100 nM.
As to `COc1cccc(COc2ccc(S(=O)(=O)c3ccc(C)nc3Nc3c(C)cc(C)cc3C)cc2)c1` [Example 26, {3-[4-(3-Methoxybenzyloxy)-benzenesulfonyl]-6-methylpyridin-2-yl}-(2,4,6-trimethylphenyl)-amine], the melting point lay within 124 to 126 °C. In addition, the inhibitory constant (Ki) in series [1] was not above 100 nM.
Consider `COc1ccccc1COc1ccc(S(=O)(=O)c2ccc(C)nc2Nc2c(C)cc(C)cc2C)cc1` [Example 27, {3-[4-(2-Methoxybenzyloxy)-benzenesulfonyl]-6-methylpyridin-2-yl}-(2,4,6-trimethylphenyl)-amine], for which the melting point was in the range of 148 to 150 °C. Also, the Ki in series [1] is not above 100 nM.
For `Cc1cc(C)c(Nc2nc(C)ccc2S(=O)(=O)c2ccc(OCc3ccccc3C#N)cc2)c(C)c1` [Example 28, 2-{4-[6-Methyl-2-(2,4,6-trimethylphenylamino)-pyridine-3-sulfonyl]-phenoxymethyl}-benzonitrile], the melting point was in the range of 208 to 210 °C. Also, in series [1], the Ki was not above 100 nM.
For `Cc1cc(C)c(Nc2nc(C)ccc2S(=O)(=O)c2ccc(OCc3ccccc3[N+](=O)[O-])cc2)c(C)c1` [Example 29, {6-Methyl-3-[4-(2-nitrobenzyloxy)-benzenesulfonyl]-pyridin-2-yl}-(2,4,6-trimethylphenyl)-amine], the melting point lay within 153 to 155 °C. Besides, the Ki in series [1] was not above 100 nM.
With `COc1cc(COc2ccc(S(=O)(=O)c3ccc(C)nc3Nc3c(C)cc(C)cc3C)cc2)cc(OC)c1` [Example 30, {3-[4-(3,5-Dimethoxybenzyloxy)-benzenesulfonyl]-6-methyl-pyridin-2-yl}-(2,4,6-trimethylphenyl)-amine], the melting point lay in the range of 107 to 109 °C. The Ki in series [1] was not above 100 nM.
As to `COc1ccc(OC)c(COc2ccc(S(=O)(=O)c3ccc(C)nc3Nc3c(C)cc(C)cc3C)cc2)c1` [Example 31, {3-[4-(2,5-Dimethoxybenzyloxy)-benzenesulfonyl]-6-methyl-pyridin-2-yl}-(2,4,6-trimethylphenyl)-amine], the melting point was 128 to 130 °C. In series [1], the Ki was not above 100 nM.
Molecule `COc1cccc(COc2ccc(S(=O)(=O)c3ccc(C)nc3Nc3c(C)cc(C)cc3C)cc2)c1OC` [Example 32, {3-[4-(2,3-Dimethoxybenzyloxy)-benzenesulfonyl]-6-methylpyridin-2-yl}-(2,4,6-trimethylphenyl)-amine] gave a melting point of 124 to 126 °C. For the same molecule, in series [1], the Ki was not above 100 nM.
For the molecule `Cc1cc(C)c(Nc2nc(C)ccc2S(=O)(=O)c2ccc(OCc3cccc(F)c3F)cc2)c(C)c1` [Example 33, {3-[4-(2,3-Difluorobenzyloxy)-benzenesulfonyl]-6-methylpyridin-2-yl}-(2,4,6-trimethylphenyl)-amine], the melting point fell in the range of 136 to 138 °C. In addition, the Ki in series [1] was not above 100 nM.
`Cc1cc(C)c(Nc2nc(C)ccc2S(=O)(=O)c2ccc(OCc3c(F)cccc3[N+](=O)[O-])cc2)c(C)c1` [Example 34, {3-[4-(2-Fluoro-6-nitrobenzyloxy)-benzenesulfonyl]-6-methyl-pyridin-2-yl}-(2,4,6-trimethylphenyl)-amine] showed a melting point of 132 to 134 °C. For the same molecule, in series [1], the Ki is not above 100 nM.
`COc1ccc(C(C)=O)cc1COc1ccc(S(=O)(=O)c2ccc(C)nc2Nc2c(C)cc(C)cc2C)cc1` [Example 35] had a melting point of 141 to 143 °C. In series [1], the inhibitory constant (Ki) lay in the range of 100 to 500 nM.
`Cc1cc(C)c(Nc2nc(C)ccc2S(=O)(=O)c2ccc(OCc3c(C)cccc3C)cc2)c(C)c1` [Example 36, {3-[4-(2,6-Dimethylbenzyloxy)-benzenesulfonyl]-6-methyl-pyridin-2-yl}-(2,4,6-trimethylphenyl)-amine] came in with a melting point of 136 to 138 °C. Moreover, the Ki in series [1] was not above 100 nM.
Take `Cc1cc(C)c(Nc2nc(C)ccc2S(=O)(=O)c2ccc(F)c(Cl)c2)c(C)c1` [Example 37, [3-(3-Chloro-4-fluorobenzenesulfonyl)-6-methylpyridin-2-yl]-(2,4,6-trimethylphenyl)-amine]: the melting point lay in the range of 139 to 141 °C. For the same molecule, the Ki in series [1] fell in the range of 100 to 500 nM.
On the same counts, the results for `Cc1cc(C)c(Nc2nc(C)ccc2S(=O)(=O)c2ccc(Br)cc2)c(C)c1` [Example 46, [3-(4-Bromobenzenesulfonyl)-6-methylpyridin-2-yl]-(2,4,6-trimethylphenyl)-amine] are 140 to 141 °C and not above 100 nM.
For `Cc1cc(C)c(Nc2nc(C)ccc2S(=O)(=O)c2ccc(C(=O)c3ccccc3)cc2)c(C)c1` [Example 54, {4-[6-Methyl-2-(2,4,6-trimethylphenylamino)-pyridine-3-sulfonyl]-phenyl}-phenyl-methanone], the melting point lay within 222 to 225 °C. Moreover, in series [1], the Ki is not above 100 nM.
